In ChEMBL document CHEMBL2385007, “Synthesis and biological evaluation of prodrugs of 2-fluoro-2-deoxyribose-1-phosphate and 2,2-difluoro-2-deoxyribose-1-phosphate” (Bioorg Med Chem Lett, 2013):

Tests used:
[1] = Cytotoxicity against human HEL cells; type: cell-based
[2] = Cytotoxicity against cat CRFK cells; type: cell-based, Felis catus
CCRF-CEM = assay: Cytotoxicity against human CEM cells; type: cell-based
L1210 = assay: Cytotoxicity against mouse L1210 cells; type: cell-based
[3] = test system: Human immunodeficiency virus 2; assay: Antiviral activity against HIV-2 ROD infected in human CEM cells assessed as HIV-induced host giant cell formation after 4 days by microscopic analysis; type: functional, organism-based; conditions: Human immunodeficiency virus 2, ISOLATE ROD, CCRF-CEM, 96 h
[4] = test system: Human immunodeficiency virus 1; assay: Antiviral activity against HIV-1 3B infected in human CEM cells assessed as HIV-induced host giant cell formation after 4 days by microscopic analysis; type: functional, organism-based; conditions: Human immunodeficiency virus 1, 3B, CCRF-CEM, 96 h
Felid alphaherpesvirus 1 = assay: Antiviral activity against Feline herpesvirus in cat CrFK cells assessed as plaque formation; type: functional, organism-based; conditions: Felid alphaherpesvirus 1, CRFK
Feline coronavirus = assay: Antiviral activity against Feline coronavirus in cat CrFK cells assessed as plaque formation; type: functional, organism-based; conditions: Alphacoronavirus 1, CRFK
Cytomegalovirus = assay: Antiviral activity against Cytomegalovirus Davis infected in HEL cells assessed as inhibition of virus-induced cytopathicity; type: functional, organism-based; conditions: Human betaherpesvirus 5, Davis
Human betaherpesvirus 5 = assay: Antiviral activity against Cytomegalovirus AD-169 infected in HEL cells assessed as inhibition of virus-induced cytopathicity; type: functional, organism-based; conditions: Human betaherpesvirus 5, AD169, HEL
Human alphaherpesvirus 3 [5] = assay: Antiviral activity against Varicellla-zoster virus 07-1 infected in HEL cells assessed as inhibition of virus-induced cytopathicity; type: functional, organism-based; conditions: Human alphaherpesvirus 3, 07-1, HEL
Human alphaherpesvirus 3 [6] = assay: Antiviral activity against Varicellla-zoster virus Oka infected in HEL cells assessed as inhibition of virus-induced cytopathicity; type: functional, cell-based; conditions: Human alphaherpesvirus 3, strain Oka vaccine
Human alphaherpesvirus 1 [7] = assay: Antiviral activity against thymidine kinase-deficient ACV-resistant HSV-1 KOS infected in HEL cells assessed as inhibition of virus-induced cytopathicity; type: functional, organism-based; conditions: Human alphaherpesvirus 1, KOS
[8] = test system: Vesicular stomatitis virus; assay: Antiviral activity against Vesicular somatitis virus infected in HEL cells assessed as inhibition of virus-induced cytopathicity; type: functional, organism-based
Vaccinia virus = assay: Antiviral activity against Vaccinia virus Lederle infected in HEL cells assessed as inhibition of virus-induced cytopathicity; type: functional, organism-based; conditions: Orthopoxvirus vaccinia
Human alphaherpesvirus 2 = assay: Antiviral activity against HSV-2 G infected in HEL cells assessed as inhibition of virus-induced cytopathicity; type: functional, organism-based; conditions: Human alphaherpesvirus 2, strain G
Human alphaherpesvirus 1 [9] = assay: Antiviral activity against HSV-1 KOS infected in HEL cells assessed as inhibition of virus-induced cytopathicity; type: functional, organism-based; conditions: Human alphaherpesvirus 1, KOS

Compound	MCC [1] [µM]	CC50 [2] [µM]	IC50 (CCRF-CEM) [µM]	IC50 (L1210) [µM]	EC50 [3] [µM]	EC50 [4] [µM]	EC50 (Felid alphaherpesvirus 1) [µM]	EC50 (Feline coronavirus) [µM]	EC50 (Cytomegalovirus) [µM]	EC50 (Human betaherpesvirus 5) [µM]	EC50 (Human alphaherpesvirus 3 [5]) [µM]	EC50 (Human alphaherpesvirus 3 [6]) [µM]	EC50 (Human alphaherpesvirus 1 [7]) [µM]	EC50 [8] [µM]	EC50 (Vaccinia virus) [µM]	EC50 (Human alphaherpesvirus 2) [µM]	EC50 (Human alphaherpesvirus 1 [9]) [µM]
C[C@H](NP(=O)(Oc1cccc2ccccc12)O[C@H]1O[C@H](CO)[C@@H](O)C1(F)F)C(=O)OC1CCCCC1 (some centres not stated)	≥ 100	> 100	> 30	> 30	> 50	> 50	> 20	> 20	> 20	> 20	> 20	> 20	> 20	> 20	> 20	> 20	> 20
C[C@H](NP(=O)(Oc1ccccc1)O[C@@H]1O[C@H](CO)[C@@H](O)C1(F)F)C(=O)OC1CCCCC1 (some centres not stated)	≥ 100	> 100	> 30	> 30	> 250	> 250	> 20	> 20	> 20	> 20	> 20	> 20	> 20	> 20	> 20	> 20	> 20
C[C@H](NP(=O)(Oc1cccc2ccccc12)O[C@@H]1O[C@H](CO)[C@@H](O)C1(F)F)C(=O)OC1CCCCC1 (mixture of isomers)	≥ 100	> 100	> 30	> 30	> 50	> 50	> 20	> 20	> 20	> 20	> 20	> 20	> 20	> 20	> 20	> 20	> 20
C[C@H](NP(=O)(Oc1ccccc1)O[C@H]1O[C@H](CO)[C@@H](O)C1(F)F)C(=O)OCC(C)(C)C (mixture of isomers)	≥ 100	> 100	> 30	> 30	> 250	> 250	> 20	> 20	> 20	> 20	> 20	> 20	> 20	> 20	> 20	> 20	> 20
COC(=O)[C@H](C)NP(=O)(Oc1ccccc1)O[C@H]1O[C@H](CO)[C@@H](O)C1(F)F (mixture of isomers)	≥ 100	> 100	> 30	> 30	> 250	> 250	> 20	> 20	> 20	> 20	> 20	> 20	> 20	> 20	> 20	> 20	> 20
COC(=O)[C@@H](NP(=O)(Oc1ccccc1)O[C@H]1O[C@H](CO)[C@@H](O)C1(F)F)C(C)C (mixture of isomers)	≥ 100	> 100	> 30	> 30	> 250	> 250	> 20	> 20	> 20	> 20	> 20	> 20	> 20	> 20	> 20	> 20	> 20
COC(=O)[C@@H](NP(=O)(Oc1cccc2ccccc12)O[C@H]1O[C@H](CO)[C@@H](O)C1(F)F)C(C)C (mixture of isomers)	≥ 100	> 100	> 30	> 30	> 50	> 50	> 20	> 20	> 20	> 20	> 20	> 20	> 20	> 20	> 20	> 20	> 20
C[C@H](NP(=O)(Oc1cccc2ccccc12)O[C@H]1O[C@H](CO)[C@@H](O)C1(F)F)C(=O)OCC(C)(C)C (mixture of isomers)	≥ 100	> 100	> 30	> 30	> 50	> 50	> 20	> 20	> 20	> 20	> 20	> 20	> 20	> 20	> 20	> 20	> 20
COC(=O)[C@H](C)NP(=O)(Oc1cccc2ccccc12)O[C@H]1O[C@H](CO)[C@@H](O)C1(F)F (mixture of isomers)	≥ 100	> 100	> 30	> 30	> 50	> 50	> 20	> 20	> 20	> 20	> 20	> 20	> 20	> 20	> 20	> 20	> 20
C[C@H](NP(=O)(Oc1cccc2ccccc12)O[C@@H]1O[C@H](CO)[C@@H](O)C1(F)F)C(=O)OCC(C)(C)C (mixture of isomers)	≥ 100	> 100	> 30	> 30	> 50	> 50	> 20	> 20	> 20	> 20	> 20	> 20	> 20	> 20	> 20	> 20	> 20
COC(=O)[C@H](C)NP(=O)(Oc1cccc2ccccc12)O[C@@H]1O[C@H](CO)[C@@H](O)C1(F)F (mixture of isomers)	≥ 100	> 100	> 30	> 30	> 50	> 50	> 20	> 20	> 20	> 20	> 20	> 20	> 20	> 20	> 20	> 20	> 20
